Experimental data reported in patent US11291643B2, “Methods of treating hypertriglyceridemia” (Amarin Pharmaceuticals Ireland Limited, priority 2011, dated 2022).

How the values were obtained:
Format in all cases: in vivo, human
[1] = system: patients with fasting triglyceride levels ≥500 mg/dL; assay: Lipoprotein particle concentration by NMR spectroscopy in the clinical study; details: 4 g/day; n = 61; study end
Description: (§1) Lipoprotein particle concentrations and sizes were measured with nuclear magnetic resonance spectroscopy in the above described clinical trial. Lipoprotein particle size and concentration parameters were obtained from fasting blood samples. Lipoprotein particle size and concentrations are measured by nuclear magnetic resonance (NMR) spectroscopy at LipoScience, Inc. (Raleigh, N.C.) using the LipoProfile-3 algorithm. VLDL, LDL, and HDL subclasses of different size were quantified from the amplitudes of their spectroscopically-distinct lipid methyl group NMR signals.
Concentrations of the following subclasses of lipoproteins were analyzed in this study: small LDL (18.0-20.5 nm), large LDL (20.5-23.0 nm), intermediate-density lipoprotein (IDL; 23.0-29.0 nm), large high-density lipoprotein (HDL; 9.4-14.0 nm), medium HDL (8.2-9.4 nm), small HDL (7.3-8.2 nm), large very-low-density lipoprotein (VLDL; >60 nm), medium VLDL (42-60 nm), and small VLDL (29-42 nm).
(§2) Subjects with missing baseline or Week 12 measurements, due to either missing laboratory samples or un-reportable values, were excluded from this analysis. The median difference of each lipoprotein particle variable (percent change from baseline) between each AMR101 treatment group and the placebo group was evaluated with a nonparametric test using the Hodges-Lehmann medians of the differences between treatment groups and the Wilcoxon rank-sum test (significance level 0.05). All statistical analyses were carried out using SAS 9.2 software.

[2] = system: patients with fasting triglyceride levels ≥500 mg/dL; assay: Lipoprotein particle size by NMR spectroscopy in the clinical study; details: for VLDL particle size, placebo-adjusted median percent change from baseline: Hodges-Lehmann median; for HDL particle size, median change from baseline / LDL particle size, median change from baseline / VLDL particle size, median change from baseline: baseline to study end; for HDL particle size, end-of-treatment value (median) / LDL particle size, end-of-treatment value (median) / VLDL particle size, end-of-treatment value (median): study end
Description: as §1, §2

[3] = system: patients with fasting triglyceride levels ≥500 mg/dL; assay: 12-week placebo-controlled double-blind clinical study: fasting lipid parameters
Description: A multi-center, placebo-controlled randomized, double-blind, 12-week study with an open-label extension was performed to evaluate the efficacy and safety of AMR101 in patients with fasting triglyceride levels ≥500 mg/dL. The primary objective of the study was to determine the efficacy of AMR101 2 g daily and 4 g daily, compared to placebo, in lowering fasting TG levels in patients with fasting TG levels ≥500 mg/dL and ≤1500 mg/dL (≥5.65 mmol/L and ≤16.94 mmol/L). The population for this study was men and women (women of childbearing potential needed to be on contraception or practice abstinence) >18 years of age with a body mass index ≤45 kg/m^2 who were not on lipid-altering therapy or are currently on lipid-altering therapy. Patients currently on statin therapy (with or without ezetimibe) were evaluated by the investigator as to whether this therapy could be safely discontinued at screening, or if it should be continued. If statin therapy (with or without ezetimibe) was to be continued, dose(s) must be stable for ≥4 weeks prior to randomization. Patients taking non-statin, lipid-altering medications (niacin >200 mg/day, fibrates, fish oil, other products containing omega-3 fatty acids, or other herbal products or dietary supplements with potential lipid-altering effects), either alone or in combination with statin therapy (with or without ezetimibe), must have been able to safely discontinue non-statin, lipid-altering therapy at screening. Approximately 240 patients were sought to be randomized at approximately 50 centers in North America, South America, Central America, Europe, India, and South Africa. The study was be a 58- to 60-week, Phase 3, multi-center study consisting of 3 study periods: (1) A 6- to 8-week screening period that included a diet and lifestyle stabilization and washout period and a TG qualifying period; (2) A 12-week, double-blind, randomized, placebo-controlled treatment period; and (3) A 40-week, open-label, extension period. After confirmation of qualifying fasting TG values, eligible patients entered a 12-week, randomized, double-blind treatment period. At Visit 4 (Week 0), patients were randomly assigned to 1 of the following treatment groups: • AMR101 2 g daily, • AMR101 4 g daily, or • Placebo. Eligible patients were randomly assigned at Visit 4 (Week 0) to receive orally AMR101 2 g daily, AMR101 4 g daily, or placebo for the 12-week double-blind treatment period. AMR101 was provided in 1 g liquid-filled, oblong, gelatin capsules. The matching placebo capsule was filled with light liquid paraffin and contained 0 g of AMR101. During the double-blind treatment period, patients took 2 capsules (AMR101 or matching placebo) in the morning and 2 in the evening for a total of 4 capsules per day. Patients in the AMR101 2 g/day treatment group received 1 AMR101 1 g capsule and 1 matching placebo capsule in the morning and in the evening. Patients in the AMR101 4 g/day treatment group received 2 AMR101 1 g capsules in the morning and evening. The primary efficacy variable for the double-blind treatment period was percent change in TG from baseline to Week 12 endpoint. […]

## CC/C=C\C/C=C\C/C=C\C/C=C\C/C=C\CCCC(=O)OCC [AMR101, ethyl eicosapentaenoate]
[1]
  Small VLDL particle concentration, end-of-treatment value (median): 52.5 nmol/L
  Total HDL particle concentration, end-of-treatment value (median): 30.8 µmol/L
  Total LDL particle concentration, end-of-treatment value (median): 1419 nmol/L
  Total VLDL particle concentration, end-of-treatment value (median): 200.3 nmol/L
[2]; 2 g/day vs placebo
  VLDL particle size, placebo-adjusted median percent change from baseline: −4.0%
[2]; 2 g/day, n = 63
  HDL particle size, median change from baseline: 0.0%
  LDL particle size, median change from baseline: 0.0%
  VLDL particle size, median change from baseline: −3.4%
  HDL particle size, end-of-treatment value (median): 8.9 nm
  LDL particle size, end-of-treatment value (median): 19.6 nm
  VLDL particle size, end-of-treatment value (median): 60.6 nm
[2]; 4 g/day vs placebo
  VLDL particle size, placebo-adjusted median percent change from baseline: −8.6%
[2]; 4 g/day, n = 60
  LDL particle size, median change from baseline: 0.0%
  LDL particle size, end-of-treatment value (median): 19.7 nm
[2]; 4 g/day, n = 61
  HDL particle size, median change from baseline: 1.1%
  VLDL particle size, median change from baseline: −8.6%
  HDL particle size, end-of-treatment value (median): 8.9 nm
  VLDL particle size, end-of-treatment value (median): 55.7 nm
[3]; 2 g/day vs placebo, 12 weeks
  Apo B median percent change, AMR101 2 g/day vs. Placebo: −2.6%
  HDL-C median percent change, AMR101 2 g/day vs. Placebo: 1.5%
  LDL-C median percent change, AMR101 2 g/day vs. Placebo: 5.2%
  Lp-PLA2 median percent change, AMR101 2 g/day vs. Placebo: −5.1%
  Non-HDL-C median percent change, AMR101 2 g/day vs. Placebo: −8.1%
  TC median percent change, AMR101 2 g/day vs. Placebo: −6.8%
  TG median percent change, AMR101 2 g/day vs. Placebo: −19.7%
  VLDL-C median percent change, AMR101 2 g/day vs. Placebo: −15.3%
  VLDL-TG median percent change, AMR101 2 g/day vs. Placebo: −17.3%
[3]; 2 g/day, 12 weeks
  Apo B median percent change from baseline: 2.1%
  HDL-C median percent change from baseline: 0.0%
  LDL-C median percent change from baseline: −2.5%
  Lp-PLA2 median percent change from baseline: −5.1%
  Non-HDL-C median percent change from baseline: 0.0%
  TC median percent change from baseline: 0.7%
  TG median percent change from baseline: −7.0%
  VLDL-C median percent change from baseline: 0.0%
  VLDL-TG median percent change from baseline: −6.4%
[3]; 4 g/day vs placebo, 12 weeks
  Apo B median percent change, AMR101 4 g/day vs. Placebo: −8.5%
  HDL-C median percent change, AMR101 4 g/day vs. Placebo: −3.6%
  LDL-C median percent change, AMR101 4 g/day vs. Placebo: −2.3%
  Lp-PLA2 median percent change, AMR101 4 g/day vs. Placebo: −13.6%
  Non-HDL-C median percent change, AMR101 4 g/day vs. Placebo: −17.7%
  TC median percent change, AMR101 4 g/day vs. Placebo: −16.3%
  TG median percent change, AMR101 4 g/day vs. Placebo: −33.1%
  VLDL-C median percent change, AMR101 4 g/day vs. Placebo: −28.6%
  VLDL-TG median percent change, AMR101 4 g/day vs. Placebo: −25.8%
[3]; 4 g/day, 12 weeks
  Apo B median percent change from baseline: −3.8%
  HDL-C median percent change from baseline: −3.5%
  LDL-C median percent change from baseline: −4.5%
  Lp-PLA2 median percent change from baseline: −17.1%
  Non-HDL-C median percent change from baseline: −7.7%
  TC median percent change from baseline: −7.3%
  TG median percent change from baseline: −26.6%
  VLDL-C median percent change from baseline: −19.5%
  VLDL-TG median percent change from baseline: −25.2%
[3]; 4 g/day, previously reported, stated as reduction
  Reduction of median apolipoprotein B compared with placebo: 8.5%
